Test results from patent US20120251999A1, “VITRIFICATION SYSTEMS AND METHODS” (THE BRIGHAM AND WOMEN'S HOSPITAL, INC., priority 2011, published 2012).
“And” between values parts separate entries of the source, which are not always exact repeats. Equal entries are not always repeated. Where two headings read alike, the source gives them in different places.

Experiments:
[1] = test system: mouse oocytes; test: Parthenogenetic activation of oocytes using SrCl2 (cleavage and blastocyst development); assay type: cell-based
Experimental: Prior to parthenogenetic activation, oocytes were cultured in KSOM medium supplemented with 4 mg/ml BSA for 2 h to allow oocytes to recover from the previous experimental procedure. For parthenogenetic activation, oocytes were incubated in SrCl2 solution in KSOM medium at 37° C. in 5% CO2/95% air for 2 h and then washed three-times with FHM medium. Oocytes were then transferred to KSOM medium and cultured at 37° C. in 5% CO2/95% air.
To determine the optimal SrCl2 concentration to parthenogenetically activate fresh mouse oocytes, we tested four SrCl2 concentrations (10 mM, 20 mM, 50 mM and 100 mM). Over the following 6 days, treated oocytes were examined microscopically every day for embryo development to the cleavage and blastocyst stages. Day 1 is defined as 24 h after treatment. Oocytes incubated in the regular KSOM medium without SrCl2 were used as controls. To determine whether droplet encapsulation has effect on oocyte parthenogenetic activation, oocytes in FHM medium were ejected into a center well culture dish containing 400 μl of FHM medium. To minimize the effects of shear stress generated at the ejector tip when using medium instead of CPAs, the flow rate of nitrogen gas was reduced to 0.6 SLPM to obtain droplet sizes similar to those obtained at 0.8 SLPM using CPAs. Oocytes were retrieved and cultured in KSOM medium at 37° C. in 5% CO2/95% air for 2 h before parthenogenetic activation. SrCl2 solution at the concentration of 50 mM, which gave the highest cleavage and blastocyst rates with control oocytes, was used for the activation of oocytes following ejection into the medium.

[2] = ejected into liquid nitrogen
From the text: The experimental setup was as described in Song et al. PNAS 2010.

[3] = 10 mM SrCl2, fresh control oocytes
[4] = 10 mM SrCl2, fresh control oocytes, 81 initiated
[5] = 20 mM SrCl2, fresh control oocytes
[6] = 20 mM SrCl2, fresh control oocytes, 82 initiated
[7] = 50 mM SrCl2, fresh control oocytes
[8] = 50 mM SrCl2, fresh control oocytes, 79 initiated
[9] = 50 mM SrCl2, oocytes after ejection with medium
[10] = 100 mM SrCl2, fresh control oocytes
[11] = 100 mM SrCl2, fresh control oocytes, 88 initiated

Q: For `[Cl-].[Cl-].[Sr+2]` [SrCl2], which “Blastocysts developed (%)” value [1, 3] is on record?
A: The value was 0 (0).

Q: What about the “Oocytes cleaved (%)” value [1, 3] of the same compound?
A: The value was 3.7%.

Q: And the “Blastocysts developed (number)” value [1, 4]?
A: The value was 0 (0).

Q: What about the “No. of Oocytes cleaved” value [1, 4] of the same compound?
A: Its value is 3.

Q: What about the “Blastocysts developed (%)” value [1, 5] of the same compound?
A: Its value is 15.9%.

Q: What about the “Oocytes cleaved (%)” value [1, 5] of the same compound?
A: The value was 46.3%.

Q: What about the “Blastocysts developed (number)” value [1, 6] of the same compound?
A: Its value is 13.

Q: And the “No. of Oocytes cleaved” value [1, 6]?
A: The value was 38.

Q: And the “Blastocysts developed (%)” value [1, 7]?
A: The value was 49.4%.

Q: What about the “Oocytes cleaved (%)” value [1, 7] of the same compound?
A: The value was 88.9% and 88.6%.

Q: And the “Blastocysts developed (number)” value [1, 8]?
A: Its value is 33.

Q: What about the “No. of Oocytes cleaved” value [1, 8] of the same compound?
A: The value was 70.

Q: And the “Blastocysts developed (%)” value [1, 9]?
A: Its value is 26.0%.

Q: What about the “Oocytes cleaved (%)” value [1, 9] of the same compound?
A: The value was 96% and 97.0%.

Q: What about the “Blastocysts developed (number)” value ([1]; 50 mM SrCl2, oocytes after ejection with medium, 100 initiated) of the same compound?
A: The value was 26.

Q: And the “No. of Oocytes cleaved” value ([1]; 50 mM SrCl2, oocytes after encapsulation in medium droplets and ejection into medium, 100 initiated)?
A: Its value is 96.

Q: What about the “Blastocysts developed (%)” value [1, 10] of the same compound?
A: The value was 2.3%.

Q: And the “Oocytes cleaved (%)” value [1, 10]?
A: The value was 48.9%.

Q: And the “Blastocysts developed (number)” value [1, 11]?
A: The value was 2.

Q: And the “No. of Oocytes cleaved” value [1, 11]?
A: The value was 43.

Q: Which vitrification of droplets ([2]; 194 μm droplets, 3 M PrOH) does the source give for `CC(O)CO` (stereo not shown) [PrOH, 1,2-propanediol] here?
A: Its vitrification of droplets is “vitrified”.

Q: What about the vitrification of droplets ([2]; 525 μm droplets, 4.5 M PrOH) of the same compound?
A: Its vitrification of droplets is “non-vitrified”.
